Test results taken from the supplement of paper PMC6045584.
± gives the standard deviation of the averaged measurements.

Compound: CCC1=C[C@@H]2CN(C1)Cc1c([nH]c3ccccc13)[C@@](C(=O)OC)(c1cc3c(cc1OC)N(C)[C@H]1[C@@](O)(C(=O)OC)[C@H](OC(C)=O)[C@]4(CC)C=CCN5CC[C@]31[C@@H]54)C2 [VINORELBINE]
Assay: surviving fraction relative to DMSO-only wells; higher = less growth inhibition
Settings: 0.5 nM; exposure time: 5 days
How it was run: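 Tumour cell lines were seeded in log phase at 250–500 cells per well into 384-well plates. Starting 24 hours later, inhibitors were present continuously for five days at 0.5, 1, 5, 10, 50, 100, 500 and 1000 nM. Surviving fraction, from CellTiter-Glo luminescence, is normalised to the median of DMSO-only wells. Three screens per line were required, with replicate Pearson r >0.7 and median Z' >0.3 for a line to be kept.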

| Test System | surviving fraction |
| --- | --- |
| C33A CERVIX | 1.02 ± 0.15 |
| CAL72 BONE | 1.04 ± 0.036 |
| G292 BONE | 0.962 ± 0.012 |
| HCC1395 BREAST | 1.04 ± 0.21 |
| HUO3N1 BONE | 1.01 ± 0.032 |
| LNCAP PROSTATE | 0.816 ± 0.12 |
| SCC003 HEADNECK | 1.02 ± 0.16 |

Same assay, conditions: 1 nM; exposure time: 5 days

| Test System | surviving fraction |
| --- | --- |
| C33A CERVIX | 1.02 ± 0.1 |
| CAL72 BONE | 1.05 ± 0.036 |
| G292 BONE | 1.01 ± 0.045 |
| HCC1395 BREAST | 1.09 ± 0.16 |
| HUO3N1 BONE | 1.02 ± 0.012 |
| LNCAP PROSTATE | 0.843 ± 0.12 |
| SCC003 HEADNECK | 1.08 ± 0.067 |

Same assay, conditions: 5 nM; exposure time: 5 days

| Test System | surviving fraction |
| --- | --- |
| C33A CERVIX | 1.03 ± 0.11 |
| CAL72 BONE | 1 ± 0.024 |
| G292 BONE | 0.704 ± 0.0075 |
| HCC1395 BREAST | 1.13 ± 0.077 |
| HUO3N1 BONE | 1.03 ± 0.039 |
| LNCAP PROSTATE | 0.667 ± 0.038 |
| SCC003 HEADNECK | 0.967 ± 0.13 |

Same assay, conditions: 10 nM; exposure time: 5 days

| Test System | surviving fraction |
| --- | --- |
| C33A CERVIX | 0.78 ± 0.04 |
| CAL72 BONE | 0.9417 ± 0.0083 |
| G292 BONE | 0.416 ± 0.013 |
| HCC1395 BREAST | 1.11 ± 0.031 |
| HUO3N1 BONE | 0.935 ± 0.017 |
| LNCAP PROSTATE | 0.458 ± 0.056 |
| SCC003 HEADNECK | 0.862 ± 0.064 |

Same assay, conditions: 50 nM; exposure time: 5 days

| Test System | surviving fraction |
| --- | --- |
| C33A CERVIX | 0.121 ± 0.0098 |
| CAL72 BONE | 0.43 ± 0.056 |
| G292 BONE | 0.221 ± 0.02 |
| HCC1395 BREAST | 0.952 ± 0.083 |
| HUO3N1 BONE | 0.308 ± 0.039 |
| LNCAP PROSTATE | 0.06 ± 0.0053 |
| SCC003 HEADNECK | 0.271 ± 0.039 |

Same assay, conditions: 100 nM; exposure time: 5 days

| Test System | surviving fraction |
| --- | --- |
| C33A CERVIX | 0.102 ± 0.028 |
| CAL72 BONE | 0.34 ± 0.05 |
| G292 BONE | 0.189 ± 0.0081 |
| HCC1395 BREAST | 0.727 ± 0.12 |
| HUO3N1 BONE | 0.182 ± 0.025 |
| LNCAP PROSTATE | 0.054 ± 0.0044 |
| SCC003 HEADNECK | 0.256 ± 0.02 |

Same assay, conditions: 500 nM; exposure time: 5 days

| Test System | surviving fraction |
| --- | --- |
| C33A CERVIX | 0.0543 ± 0.026 |
| CAL72 BONE | 0.213 ± 0.018 |
| G292 BONE | 0.144 ± 0.013 |
| HCC1395 BREAST | 0.575 ± 0.16 |
| HUO3N1 BONE | 0.183 ± 0.0055 |
| LNCAP PROSTATE | 0.058 ± 0.001 |
| SCC003 HEADNECK | 0.34 ± 0.045 |

Same assay, conditions: 1000 nM; exposure time: 5 days

| Test System | surviving fraction |
| --- | --- |
| C33A CERVIX | 0.0423 ± 0.0078 |
| CAL72 BONE | 0.213 ± 0.026 |
| G292 BONE | 0.105 ± 0.011 |
| HCC1395 BREAST | 0.467 ± 0.057 |
| HUO3N1 BONE | 0.179 ± 0.018 |
| LNCAP PROSTATE | 0.0507 ± 0.0083 |
| SCC003 HEADNECK | 0.311 ± 0.036 |

Compound: CCN(CC)CCNC(=O)c1c(C)[nH]c(/C=C2\C(=O)Nc3ccc(F)cc32)c1C [SUNITINIB]
Assay: area under dose-response curve of surviving fraction (unscaled, Aref=0) (surviving fraction x log10(nM)); higher = more resistant
Settings: exposure time: 5 days; dose range 0.5-1000 nM
How it was run: (§1)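 Surviving fractions were fitted by 3-parameter logistic regression in the drc R package to give dose-response survival curves. They came from tumour cell lines treated for five days with eight inhibitor concentrations from 0.5 to 1000 nM and read by CellTiter-Glo luminescence against DMSO-only wells. The area under the curve is the unscaled activity area. It was calculated over log10 dose with Aref = 0.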

| Test System | area under dose-response curve |
| --- | --- |
| G292 BONE | 2.82 |
| HCC1395 BREAST | 3.19 |
| HUO3N1 BONE | 2.62 |
| SCC003 HEADNECK | 2.83 |

Compound: O=C(O)CC[C@H]1CC[C@@](c2cc(F)ccc2F)(S(=O)(=O)c2ccc(Cl)cc2)CC1 [MK0752]
Assay: as above
Settings: exposure time: 5 days; dose range 0.5-1000 nM
How it was run: as §1

| Test System | area under dose-response curve |
| --- | --- |
| C33A CERVIX | 3.7 |
| CAL72 BONE | 3.63 |
| G292 BONE | 3.19 |
| HCC1395 BREAST | 3.51 |
| LNCAP PROSTATE | 3.22 |
